Article PMC5995905, “Confirmation of high-throughput screening data and novel mechanistic insights into VDR-xenobiotic interactions by orthogonal assays” (Scientific Reports, 2018)
Values joined by “and” are separate entries in the source; they are usually repeats but may differ in a detail not shown here. Equal values may be shown once. “Also recorded” adds a separate entry of the source. Where a name gives a salt, the structure may show the parent alone.

Target: VDR:SRC-1 (Homo sapiens, UniProt P11473)
Assay: Mammalian 2-hybrid assay, recruitment of coactivator SRC-1 by VDR, Cos7 cells
Settings: agonists; -RXR (empty pSG5); percentage of vitamin D3; conc. in Fig 5: ergocalciferol 60, lithocholic acid 50, calcipotriol 0.05, ethylphenol compound 40, 9 aminoacridine 50, tamoxifen citrate 20 μM

Compound | % Induction, pMSRC-1NR + EpSG5 [%]
CCc1cc(Cc2cc(CC)cc(C(C)(C)C)c2O)c(O)c(C(C)(C)C)c1 [2,2′-methylenebis(6-tert-butyl-4-ethylphenol)] | 7.2
C=C1/C(=C\C=C2/CCC[C@]3(C)[C@@H]([C@H](C)/C=C/[C@@H](O)C4CC4)CC[C@@H]23)C[C@@H](O)C[C@@H]1O [Calcipotriol, reference compound] | 142.9
Nc1nc(N)c2nc(-c3ccccc3)c(N)nc2n1 [Triamterene, reference compound] | 0.9

Target: human VDR ligand-binding domain
Assay: not given
Design: method as in PMID 21543282
Settings: antagonist mode; Tox21 qHTS data set; read-out: Tox21 IC 50; cited from earlier work

Compound | IC50 [nM]
O=C([O-])c1ccccc1-c1c2ccc(=O)cc-2oc2cc([O-])ccc12.[Na+].[Na+] [Fluorescein sodium, reference compound] | 356
Cc1cc(O)c2ccccc2c1O [Menadiol, reference compound] | 979
Nc1ccc2cc3ccc(N)cc3nc2c1 [Proflavine hydrochloride] | 3410
C[C@]1(Cn2ccnn2)[C@H](C(=O)O)N2C(=O)C[C@H]2S1(=O)=O [Tazobactam sodium, reference compound] | 1980

Same assay, conditions: read-out: Tox21 IC 50; cited from earlier work

Compound | IC50 [nM]
COc1cccc2c1cc([N+](=O)[O-])c1c(C(=O)O)cc3c(c12)OCO3 [Aristolochic acid] | 7320
O=C(O)CCCc1ccc(N(CCCl)CCCl)cc1 [Chlorambucil, reference compound] | 0.058
CCC[CH2][Sn]([Cl])([Cl])[CH2]CCC [Dibutyltin dichloride] | 82.3
[Au+].[C-]#N.[C-]#N.[K+] [Potassium dicyanoaurate] | 91.2
[OH-].c1cc[c]([Sn+]([c]2ccccc2)[c]2ccccc2)cc1 [Triphenyltin hydroxide] | 92.9
Cadmium dinitrate | 167
Tributyltin chloride | 959

Target: T1, human VDR (Homo sapiens, UniProt P11473)
T1 sequence (P11473 1-427): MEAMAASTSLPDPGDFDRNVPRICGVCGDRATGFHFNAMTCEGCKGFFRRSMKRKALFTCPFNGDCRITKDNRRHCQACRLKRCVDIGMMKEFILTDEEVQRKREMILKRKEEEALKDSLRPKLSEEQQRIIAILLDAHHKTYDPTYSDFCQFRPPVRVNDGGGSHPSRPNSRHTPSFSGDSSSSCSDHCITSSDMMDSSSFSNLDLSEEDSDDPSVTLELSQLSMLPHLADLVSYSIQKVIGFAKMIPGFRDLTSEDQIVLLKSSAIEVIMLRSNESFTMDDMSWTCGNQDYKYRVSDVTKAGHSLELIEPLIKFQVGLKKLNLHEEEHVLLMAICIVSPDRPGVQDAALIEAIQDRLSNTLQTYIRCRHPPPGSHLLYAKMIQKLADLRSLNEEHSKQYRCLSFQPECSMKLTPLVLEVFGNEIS
Assay: Transient transactivation assay (CYP24-Luc), antagonist mode with 3 nM 1,25D3, HEK293T cells
Type: cell-based
Settings: not given

Compound | Activity | Derived Efficacy (fold inhibition) | AC50 [nM]
COc1cccc2c1cc([N+](=O)[O-])c1c(C(=O)O)cc3c(c12)OCO3 [Aristolochic acid] | Active | 76.1807 | –
O=C(O)CCCc1ccc(N(CCCl)CCCl)cc1 [Chlorambucil, reference compound] | Active | 68.5251 | –
CCC[CH2][Sn]([Cl])([Cl])[CH2]CCC [Dibutyltin dichloride] | Active | 20.5748 | –
O=C1C(Cl)=C(Cl)C(=O)c2ccccc21 [Dichlone] | moderate to marked synergistic activity; also recorded: Active | 86.9798 | 19800
[Au+].[C-]#N.[C-]#N.[K+] [Potassium dicyanoaurate] | Active | 76.1807 | –
[OH-].c1cc[c]([Sn+]([c]2ccccc2)[c]2ccccc2)cc1 [Triphenyltin hydroxide] | Active | 89.3748 | –
Cadmium dinitrate | Active | 82.6111 | –

Same assay, conditions: Derived IC 50 (Transient transactivation assay)

Compound | IC50
COc1cccc2c1cc([N+](=O)[O-])c1c(C(=O)O)cc3c(c12)OCO3 [Aristolochic acid] | 820 nM and 827 nM
O=C(O)CCCc1ccc(N(CCCl)CCCl)cc1 [Chlorambucil, reference compound] | 21 nM
O=C1C(Cl)=C(Cl)C(=O)c2ccccc21 [Dichlone] | 240 nM and 243 nM

Same assay, conditions: antagonists; transient transactivation assay in the presence of 3 nM 1,25D3

Compound | Activity
Cc1cc(O)c2ccccc2c1O [Menadiol, reference compound] | Active
Nc1ccc2cc3ccc(N)cc3nc2c1 [Proflavine hydrochloride] | Active
C[C@]1(Cn2ccnn2)[C@H](C(=O)O)N2C(=O)C[C@H]2S1(=O)=O [Tazobactam sodium, reference compound] | Active
CN(C)C(=S)SSC(=S)N(C)C [Thiram] | Active

Same assay, conditions: antagonists; transient transactivation assay in the presence of 3 nM 1,25D3; listed as menadiol

Compound | Activity
Cc1cc(O)c2ccccc2c1O [Menadiol, reference compound] | moderate to marked synergistic activity

Same assay, conditions: experimental AC50 as listed in Fig 4a; antagonists; read-out: AC50

Compound | AC50 [nM]
Nc1ccc2cc3ccc(N)cc3nc2c1 [Proflavine hydrochloride] | 668
CN(C)C(=S)SSC(=S)N(C)C [Thiram] | 479

Same assay, conditions: inhibition of 3 nM 1,25D3-induced response; HEK293T cells; unit given in Fig 3 legend; read-out: Derived IC 50 (Transient transactivation assay)

Compound | IC50
Cc1cc(O)c2ccccc2c1O [Menadiol, reference compound] | 3490 nM and 3500 nM
Nc1ccc2cc3ccc(N)cc3nc2c1 [Proflavine hydrochloride] | 555 nM
C[C@]1(Cn2ccnn2)[C@H](C(=O)O)N2C(=O)C[C@H]2S1(=O)=O [Tazobactam sodium, reference compound] | 283 nM
CN(C)C(=S)SSC(=S)N(C)C [Thiram] | 420 nM and 428 nM

Same assay, conditions: read-out: AC50

Compound | AC50 [nM]
Cc1cc(O)c2ccccc2c1O [Menadiol, reference compound] | 45800

Same assay, conditions: read-out: Derived IC 50 (Transient transactivation assay)

Compound | IC50
CCC[CH2][Sn]([Cl])([Cl])[CH2]CCC [Dibutyltin dichloride] | 540 nM and 542 nM
[Au+].[C-]#N.[C-]#N.[K+] [Potassium dicyanoaurate] | 98.5 nM
[OH-].c1cc[c]([Sn+]([c]2ccccc2)[c]2ccccc2)cc1 [Triphenyltin hydroxide] | 45.4 nM

Same assay, conditions: top asymptote of Hill or Gain-Loss model, maximum response

Compound | Derived Efficacy (fold inhibition)
O=C([O-])c1ccccc1-c1c2ccc(=O)cc-2oc2cc([O-])ccc12.[Na+].[Na+] [Fluorescein sodium, reference compound] | 101.7383
Cc1cc(O)c2ccccc2c1O [Menadiol, reference compound] | 101.7383
Nc1ccc2cc3ccc(N)cc3nc2c1 [Proflavine hydrochloride] | 68.3825
C[C@]1(Cn2ccnn2)[C@H](C(=O)O)N2C(=O)C[C@H]2S1(=O)=O [Tazobactam sodium, reference compound] | 79.1108
CN(C)C(=S)SSC(=S)N(C)C [Thiram] | 76.1807

Target: T2, VDR:NCoR (Homo sapiens, UniProt P11473)
T2 sequence (P11473 1-427): T1 sequence (P11473 1-427)
Assay: Mammalian 2-hybrid assay, recruitment of corepressor NCoR by VDR, Cos7 cells
Settings: not given

Compound | Fold Change (pMNCoR + EpSG5)
COc1cccc2c1cc([N+](=O)[O-])c1c(C(=O)O)cc3c(c12)OCO3 [Aristolochic acid] | 25.8
O=C(O)CCCc1ccc(N(CCCl)CCCl)cc1 [Chlorambucil, reference compound] | 0.9
O=C1C(Cl)=C(Cl)C(=O)c2ccccc21 [Dichlone] | 1.1
CN(C)C(=S)SSC(=S)N(C)C [Thiram] | 1.7

Target: human VDR ligand-binding domain
Assay: not given
Design: method as in PMID 21543282
Settings: agonist mode; Tox21 qHTS data set; * = range of values; cited from earlier work

Compound | AC50 [nM]
CCc1cc(Cc2cc(CC)cc(C(C)(C)C)c2O)c(O)c(C(C)(C)C)c1 [2,2′-methylenebis(6-tert-butyl-4-ethylphenol)] | 52600
O=S(=O)(O)c1ccc2ccc(S(=O)(=O)O)cc2c1 [2,7 Naphthalene disulfonic acid] | 14500
Cc1cc(=O)oc2cc(N(C)C)ccc12 [7-(Dimethylamino)-4-methylcoumarin] | 2880 to 21500
O=S(=O)(O)c1ccccc1 [Benzenesulfonic acid] | 9900
C=C1/C(=C\C=C2/CCC[C@]3(C)[C@@H]([C@H](C)/C=C/[C@@H](O)C4CC4)CC[C@@H]23)C[C@@H](O)C[C@@H]1O [Calcipotriol, reference compound] | 0.294
C=C1CC[C@H](O)C/C1=C/C=C1\CCC[C@]2(C)[C@@H]([C@H](C)/C=C/[C@H](C)C(C)C)CC[C@@H]12 [Ergocalciferol, reference compound] | 4280 to 9020
N#C/C(=C1/SCC(c2ccccc2Cl)S1)n1ccnc1 (centres unmarked) [Lanoconazole, reference compound] | 21100
COC(=O)c1nc(Cl)c(Cl)nc1N [Methyl 3-amino-5,6-dichloropyrazine-2-carboxylate] | 8780
CC/C(=C(\c1ccccc1)c1ccc(OCCN(C)C)cc1)c1ccccc1 [Tamoxifen citrate, reference compound] | 33000 to 56000
Nc1nc(N)c2nc(-c3ccccc3)c(N)nc2n1 [Triamterene, reference compound] | 5300 to 42100

Target: T3, VDR:RXR, VDR:SRC-1 and VDR:NCoR interactions (Homo sapiens, UniProt P11473)
T3 sequence (P11473 1-427): T1 sequence (P11473 1-427)
Assay: Mammalian 2-hybrid assay, summary in words of VDR coregulator interactions
Type: cell-based
Settings: not given

Compound | pattern of change of 1,25D3 induced VDR:coregulator interaction | pattern of VDR:coregulator interaction facilitated by the ligand
COc1cccc2c1cc([N+](=O)[O-])c1c(C(=O)O)cc3c(c12)OCO3 [Aristolochic acid] | enhanced the interaction between VDR:SRC-1 only in the absence of RXR | –
O=S(=O)(O)c1ccccc1 [Benzenesulfonic acid] | – | did not facilitate VDR:RXR or VDR:SRC-1 interactions under any condition
CCC[CH2][Sn]([Cl])([Cl])[CH2]CCC [Dibutyltin dichloride] | consistently attenuate recruitment VDR:RXR and VDR:SRC-1 in both the presence and absence of co-expressed coregulators | –
[Au+].[C-]#N.[C-]#N.[K+] [Potassium dicyanoaurate] | selectively inhibited VDR:SRC-1 interactions only in the presence of full length wild type RXR | –
[OH-].c1cc[c]([Sn+]([c]2ccccc2)[c]2ccccc2)cc1 [Triphenyltin hydroxide] | consistently attenuate recruitment VDR:RXR and VDR:SRC-1 in both the presence and absence of co-expressed coregulators | –
Cadmium dinitrate | enhanced recruitment of VDR:RXR and VDR:SRC-1 in both the presence and absence of co-expressed coregulators | –

Target: T1, human VDR
Assay: Transient transactivation assay (CYP24-Luc), agonist mode, HEK293T cells
Settings: not given

Compound | Activity
O=S(=O)(O)c1ccccc1 [Benzenesulfonic acid] | Active
O=C1C(Cl)=C(Cl)C(=O)c2ccccc21 [Dichlone] | very weak agonist activity

Same assay, conditions: AC50 (μM), experimental AC50 as listed in Fig 4a; agonists

Compound | AC50 [µM]
CCc1cc(Cc2cc(CC)cc(C(C)(C)C)c2O)c(O)c(C(C)(C)C)c1 [2,2′-methylenebis(6-tert-butyl-4-ethylphenol)] | 35.4
Nc1nc(N)c2nc(-c3ccccc3)c(N)nc2n1 [Triamterene, reference compound] | 12.2

Same assay, conditions: Derived AC50 (Transient transactivation assay), agonist mode; HEK293T cells; CYP24A1-Luc

Compound | AC50 [µM]
CCc1cc(Cc2cc(CC)cc(C(C)(C)C)c2O)c(O)c(C(C)(C)C)c1 [2,2′-methylenebis(6-tert-butyl-4-ethylphenol)] | 36.8
O=S(=O)(O)c1ccc2ccc(S(=O)(=O)O)cc2c1 [2,7 Naphthalene disulfonic acid] | 13.8
Cc1cc(=O)oc2cc(N(C)C)ccc12 [7-(Dimethylamino)-4-methylcoumarin] | 0.793
COC(=O)c1nc(Cl)c(Cl)nc1N [Methyl 3-amino-5,6-dichloropyrazine-2-carboxylate] | 0.446
Nc1nc(N)c2nc(-c3ccccc3)c(N)nc2n1 [Triamterene, reference compound] | 3.07

Same assay, conditions: agonists; orthogonal transient transactivation assay, HEK293T cells

Compound | Activity
CCc1cc(Cc2cc(CC)cc(C(C)(C)C)c2O)c(O)c(C(C)(C)C)c1 [2,2′-methylenebis(6-tert-butyl-4-ethylphenol)] | Active
O=S(=O)(O)c1ccc2ccc(S(=O)(=O)O)cc2c1 [2,7 Naphthalene disulfonic acid] | Active
Cc1cc(=O)oc2cc(N(C)C)ccc12 [7-(Dimethylamino)-4-methylcoumarin] | Active
C=C1/C(=C\C=C2/CCC[C@]3(C)[C@@H]([C@H](C)/C=C/[C@@H](O)C4CC4)CC[C@@H]23)C[C@@H](O)C[C@@H]1O [Calcipotriol, reference compound] | Active
Cc1cc(O)c2ccccc2c1O [Menadiol, reference compound] | very weak agonist activity
COC(=O)c1nc(Cl)c(Cl)nc1N [Methyl 3-amino-5,6-dichloropyrazine-2-carboxylate] | Active
Nc1nc(N)c2nc(-c3ccccc3)c(N)nc2n1 [Triamterene, reference compound] | Active

Same assay, conditions: read-out: Derived AC50 (Transient transactivation assay)

Compound | AC50 [µM]
O=S(=O)(O)c1ccccc1 [Benzenesulfonic acid] | 0.772

Same assay, conditions: top asymptote of Hill or Gain-Loss model, maximum response

Compound | Derived Efficacy (fold induction)
CCc1cc(Cc2cc(CC)cc(C(C)(C)C)c2O)c(O)c(C(C)(C)C)c1 [2,2′-methylenebis(6-tert-butyl-4-ethylphenol)] | 89.3748
O=S(=O)(O)c1ccc2ccc(S(=O)(=O)O)cc2c1 [2,7 Naphthalene disulfonic acid] | 14.1669
Cc1cc(=O)oc2cc(N(C)C)ccc12 [7-(Dimethylamino)-4-methylcoumarin] | 17.3255
O=S(=O)(O)c1ccccc1 [Benzenesulfonic acid] | 13.6777
COC(=O)c1nc(Cl)c(Cl)nc1N [Methyl 3-amino-5,6-dichloropyrazine-2-carboxylate] | 44.5165
Nc1nc(N)c2nc(-c3ccccc3)c(N)nc2n1 [Triamterene, reference compound] | 14.7020
